Patent publication US8399419B2, “Antibacterial aminoglycoside analogs” (Achaogen, Inc., priority 2008, dated 2013)
≈ marks a conversion by molar mass, not a printed value.

Columns and labels:
E. coli ATCC 25922 = test: MIC assay (CLSI broth microdilution), AECO001; format: cell-based; conditions: AECO001 is ATCC25922 (E. coli), Mueller Hinton Broth, 35 C, 20 hours; for MIC: Escherichia coli
Procedure: (§1) Minimum inhibitory concentrations (MIC) were determined by reference Clinical and Laboratory Standards Institute (CLSI) broth microdilution methods per M7-A7 [2006]. Quality control ranges utilizing E. coli ATCC 25922, P. aeruginosa ATCC 27853 and S. aureus ATCC 29213, and interpretive criteria for comparator agents were as published in CLSI M100-S17 [2007]. Briefly, serial two-fold dilutions of the test compounds were prepared at 2× concentration in Mueller Hinton Broth. The compound dilutions were mixed in 96-well assay plates in a 1:1 ratio with bacterial inoculum. The inoculum was prepared by suspension of a colony from an agar plate that was prepared the previous day. Bacteria were suspended in sterile saline and added to each assay plate to obtain a final concentration of 5×10^5 CFU/mL. The plates were incubated at 35 C for 20 hours in ambient air.

P. aeruginosa ATCC 27853 = test: MIC assay (CLSI broth microdilution), APAE001; format: cell-based; conditions: APAE001 is ATCC27853 (P. aeruginosa), Mueller Hinton Broth, 35 C, 20 hours; for MIC: Pseudomonas aeruginosa
Procedure: as §1

Row | Compound | MIC (E. coli ATCC 25922) [µg/mL] | MIC (P. aeruginosa ATCC 27853) [µg/mL] | MIC AECO001 (E. coli ATCC 25922) | MIC APAE001 (P. aeruginosa ATCC 27853)
1 | 3′,4′,3′″,4′″-tetra-deoxy-1-(3-amino-propionyl)-neomycin [Example 14/Compound 4] |  |  | B (MIC's of greater than 1.0 μg/mL to 16.0 μg/mL = B) | B (MIC's of greater than 1.0 μg/mL to 16.0 μg/mL = B)
2 | CC(=O)N[C@@H]1C[C@H](N)[C@@H](O[C@H]2O[C@H](CN)CC[C@H]2N)[C@H](O[C@@H]2O[C@H](CO)[C@@H](O[C@H]3O[C@@H](CN)CC[C@H]3N)[C@H]2O)[C@H]1O [Example 8/Compound 3] | 1 to 16 (≈ 1.69 to 27 µM) | 1 to 16 (≈ 1.69 to 27 µM) |  | 
3 | NCCS(=O)(=O)N[C@@H]1C[C@H](N)[C@@H](O[C@H]2O[C@H](CN)CC[C@H]2N)[C@H](O[C@@H]2O[C@H](CO)[C@@H](O[C@H]3O[C@@H](CN)CC[C@H]3N)[C@H]2O)[C@H]1O [Example 23/Compound 4, 3′,4′,3′″,4′″-tetra-deoxy-1-(2-amino-ethylsulfonamide)-neomycin] | 1 to 16 (≈ 1.52 to 24.3 µM) |  |  | 
4 | NCC[C@H](O)C(=O)N[C@@H]1C[C@H](N)[C@@H](O[C@H]2O[C@H](CN)C=C[C@H]2N)[C@H](O[C@@H]2O[C@H](CO)[C@@H](O[C@H]3O[C@@H](CN)C=C[C@H]3N)[C@H]2O)[C@H]1O [Example 5/Compound 7] | 1 to 16 (≈ 1.54 to 24.7 µM) | ≤ 1 |  | 
5 | NCC[C@H](O)C(=O)N[C@@H]1C[C@H](N)[C@@H](O[C@H]2O[C@H](CO)CC[C@H]2N)[C@H](O[C@@H]2O[C@H](CO)[C@@H](O[C@H]3O[C@@H](CN)CC[C@H]3N)[C@H]2O)[C@H]1O [Example 1/Compound 16, 3′,4′,3′″,4′″-tetradeoxy-1-(4-amino-2(S)-hydroxy-butyryl)-paromomycin] | 1 to 16 (≈ 1.53 to 24.5 µM) | > 16 |  | 
6 | NC[C@H]1CC[C@@H](N)[C@@H](O[C@H]2[C@@H](O)[C@H](O[C@@H]3[C@@H](O)[C@H](N)C[C@H](N)[C@H]3O[C@H]3O[C@H](CO)CC[C@H]3N)O[C@@H]2CO)O1 [Example 2/Compound 8] | 1 to 16 (≈ 1.81 to 29 µM) | > 16 |  | 
7 | NC[C@@H]1CC[C@@H](N)[C@@H](O[C@H]2[C@H](O[C@@H]3O[C@H](CO)[C@@H](O[C@H]4O[C@@H](CN)CC[C@H]4N)[C@H]3O)[C@@H](O)[C@H](NCCC(N)=O)C[C@@H]2N)O1 [Example 11/Compound 3, 3′,4′,3′″,4′″-tetra-deoxy-1-(3-propionamide)-neomycin] | 1 to 16 (≈ 1.61 to 25.7 µM) | 1 to 16 (≈ 1.61 to 25.7 µM) |  | 
8 | NC[C@@H]1CC[C@@H](N)[C@@H](O[C@H]2[C@H](O[C@@H]3O[C@H](CO)[C@@H](O[C@H]4O[C@@H](CN)CC[C@H]4N)[C@H]3O)[C@@H](O)[C@H](NCCO)C[C@@H]2N)O1 [Example 15/Compound 3, 3′,4′,3′″,4′″-tetra-deoxy-1-(2-hydroxyethyl)-neomycin] | 1 to 16 (≈ 1.68 to 26.9 µM) | 1 to 16 (≈ 1.68 to 26.9 µM) |  | 
9 | NC[C@@H]1CC[C@@H](N)[C@@H](O[C@H]2[C@H](O[C@@H]3O[C@H](CO)[C@@H](O[C@H]4O[C@@H](CN)CC[C@H]4N)[C@H]3O)[C@@H](O)[C@H](NC(=O)[C@@H](O)CN)C[C@@H]2N)O1 [Example 13/Compound 4, 3′,4′,3′″,4′″-tetra-deoxy-1-(2(S)-hydroxy-3-amino-propionyl)-neomycin] | 1 to 16 (≈ 1.57 to 25.1 µM) | ≤ 1 |  | 
10 | NCC[C@H](O)C(=O)N[C@@H]1C[C@H](N)[C@@H](O[C@H]2O[C@H](CN)CC[C@H]2N)[C@H](O[C@@H]2O[C@H](CO)[C@@H](O[C@H]3O[C@H](CN)CC[C@H]3N)[C@H]2O)[C@H]1O [Example 6/Compound 9] | 1 to 16 (≈ 1.53 to 24.5 µM) | 1 to 16 (≈ 1.53 to 24.5 µM) |  | 

Further lines, with some results ahead:

Row | MIC (E. coli ATCC 25922) [µg/mL] | MIC (P. aeruginosa ATCC 27853) [µg/mL] | Compound | MIC AECO001 (E. coli ATCC 25922) | MIC APAE001 (P. aeruginosa ATCC 27853)
11 | 1 to 16 (≈ 1.53 to 24.5 µM) | ≤ 1 | NCC[C@H](O)C(=O)N[C@@H]1C[C@H](N)[C@@H](O[C@H]2O[C@H](CN)CC[C@H]2N)[C@H](O[C@@H]2O[C@H](CO)[C@@H](O[C@H]3O[C@@H](CN)CC[C@H]3N)[C@H]2O)[C@H]1O [Example 4/Compound 5, 3′,4′,3′″,4′″-tetra-dehydro-1-(4-amino-2(S)-hydroxy-butyryl)-neomycin] |  | 
12 | 1 to 16 (≈ 1.57 to 25.1 µM) | 1 to 16 (≈ 1.57 to 25.1 µM) | NC[C@@H]1CC[C@@H](N)[C@@H](O[C@H]2[C@H](O[C@@H]3O[C@H](CO)[C@@H](O[C@H]4O[C@@H](CN)CC[C@H]4N)[C@H]3O)[C@@H](O)[C@H](NC(=O)[C@@H](N)CO)C[C@@H]2N)O1 [Example 20/Compound 3, 3′,4′,3′″,4′″-tetra-deoxy-1-(2(S)-amino-3-hydroxy-propionyl)-neomycin] |  | 
13 | ≤ 1 | ≤ 1 | NC[C@@H]1CC[C@@H](N)[C@@H](O[C@H]2[C@H](O[C@@H]3O[C@H](CO)[C@@H](O[C@H]4O[C@@H](CN)CC[C@H]4N)[C@H]3O)[C@@H](O)[C@H](NC(=O)[C@H](O)[C@@H](F)CN)C[C@@H]2N)O1 [Example 25/Compound 8, 3′,4′,3′″,4′″-tetra-deoxy-1-(4-amino-3(S)-fluoro-2(S)-hydroxy-butyryl)-neomycin] |  | 
14 | ≤ 1 | ≤ 1 | NC[C@@H]1CC[C@@H](N)[C@@H](O[C@H]2[C@H](O[C@@H]3O[C@H](CO)[C@@H](O[C@H]4O[C@@H](CN)CC[C@H]4N)[C@H]3O)[C@@H](O)[C@H](NC(=O)C3(O)CC(N)C3)C[C@@H]2N)O1 (stereo partly shown) [Example 9/Compound 4] |  | 
15 | 1 to 16 (≈ 1.52 to 24.4 µM) | 1 to 16 (≈ 1.52 to 24.4 µM) | NC[C@@H]1CC[C@@H](N)[C@@H](O[C@H]2[C@H](O[C@@H]3O[C@H](CO)[C@@H](O[C@H]4O[C@@H](CN)CC[C@H]4N)[C@H]3O)[C@@H](O)[C@H](NCc3cccc(O)c3)C[C@@H]2N)O1 [Example 16/Compound 3, 3′,4′,3′″,4′″-tetra-deoxy-1-(3-hydroxybenzyl)-neomycin] |  | 
16 | 1 to 16 (≈ 1.65 to 26.3 µM) | 1 to 16 (≈ 1.65 to 26.3 µM) | NCC(=O)N[C@@H]1C[C@H](N)[C@@H](O[C@H]2O[C@H](CN)CC[C@H]2N)[C@H](O[C@@H]2O[C@H](CO)[C@@H](O[C@H]3O[C@@H](CN)CC[C@H]3N)[C@H]2O)[C@H]1O [Example 19/Compound 3, 3′,4′,3′″,4′″-tetra-deoxy-1-(2-aminoacetyl)-neomycin] |  | 
17 | 1 to 16 (≈ 1.58 to 25.3 µM) | > 16 | N#CCCC(=O)N[C@@H]1C[C@H](N)[C@@H](O[C@H]2O[C@H](CN)CC[C@H]2N)[C@H](O[C@@H]2O[C@H](CO)[C@@H](O[C@H]3O[C@@H](CN)CC[C@H]3N)[C@H]2O)[C@H]1O [Example 14/Compound 3, 3′,4′,3′″,4′″-tetra-deoxy-1-(3-cyano-propionyl)-neomycin] |  | 
18 | 1 to 16 (≈ 1.49 to 23.8 µM) | ≤ 1 | NCCCS(=O)(=O)N[C@@H]1C[C@H](N)[C@@H](O[C@H]2O[C@H](CN)CC[C@H]2N)[C@H](O[C@@H]2O[C@H](CO)[C@@H](O[C@H]3O[C@@H](CN)CC[C@H]3N)[C@H]2O)[C@H]1O [Example 7/Compound 4] |  | 
19 | ≤ 1 | ≤ 1 | NC[C@@H]1CC[C@@H](N)[C@@H](O[C@H]2[C@H](O[C@@H]3O[C@H](CO)[C@@H](O[C@H]4O[C@@H](CN)CC[C@H]4N)[C@H]3O)[C@@H](O)[C@H](NC(=O)[C@@H](O)[C@H](F)CN)C[C@@H]2N)O1 [Example 24/Compound 8, 3′,4′,3′″,4′″-tetra-deoxy-1-(4-amino-3(R)-fluoro-2(R)-hydroxy-butyryl)-neomycin] |  | 
20 | 1 to 16 (≈ 1.45 to 23.3 µM) | 1 to 16 (≈ 1.45 to 23.3 µM) | NC[C@@H]1CC[C@@H](N)[C@@H](O[C@H]2[C@H](O[C@@H]3O[C@H](CO)[C@@H](O[C@H]4O[C@@H](CN)CC[C@H]4N)[C@H]3O)[C@@H](O)[C@H](NC(=O)[C@H](O)C(F)(F)CN)C[C@@H]2N)O1 [Example 27/Compound 6, 3′,4′,3′″,4′″-tetra-deoxy-1-(4-amino-3,3-bisfluoro-2(S)-hydroxy-butyryl)-neomycin] |  | 
21 | ≤ 1 | ≤ 1 | NC[C@@H]1CC[C@@H](N)[C@@H](O[C@H]2[C@H](O[C@@H]3O[C@H](CO)[C@@H](O[C@H]4O[C@@H](CN)CC[C@H]4N)[C@H]3O)[C@@H](O)[C@H](NC(=O)[C@@H](O)C(F)(F)CN)C[C@@H]2N)O1 [Example 26/Compound 6, 3′,4′,3′″,4′″-tetra-deoxy-1-(4-amino-3,3-bisfluoro-2(R)-hydroxy-butyryl)-neomycin] |  | 
22 | ≤ 1 | ≤ 1 | NC[C@@H]1CC[C@@H](N)[C@@H](O[C@H]2[C@H](O[C@@H]3O[C@H](CO)[C@@H](O[C@H]4O[C@@H](CN)CC[C@H]4N)[C@H]3O)[C@@H](O)[C@H](NC(=O)C3(O)CNC3)C[C@@H]2N)O1 [Example 10/Compound 4] |  | 
23 | ≤ 1 | ≤ 1 | NC[C@@H]1CC[C@@H](N)[C@@H](O[C@H]2[C@H](O[C@@H]3O[C@H](CO)[C@@H](O[C@H]4O[C@@H](CN)CC[C@H]4N)[C@H]3O)[C@@H](O)[C@H](N)C[C@@H]2N)O1 [Example 3/Compound 6, 3′,4′,3′″,4′″-tetra-deoxy-neomycin] |  | 
24 | ≤ 1 | ≤ 1 | NC[C@@H]1CC[C@@H](N)[C@@H](O[C@H]2[C@H](O[C@@H]3O[C@H](CO)[C@@H](O[C@H]4O[C@@H](CN)CC[C@H]4N)[C@H]3O)[C@@H](O)[C@H](NC(=O)[C@@H](O)[C@@H](O)CN)C[C@@H]2N)O1 [Example 28/Compound 6, 3′,4′,3′″,4′″-tetra-deoxy-1-(4-amino-3,2-(S,S)-bis-hydroxy-butyryl)-neomycin] |  | 
25 | ≤ 1 | ≤ 1 | NCCN(O)C(=O)N[C@@H]1C[C@H](N)[C@@H](O[C@H]2O[C@H](CN)CC[C@H]2N)[C@H](O[C@@H]2O[C@H](CO)[C@@H](O[C@H]3O[C@@H](CN)CC[C@H]3N)[C@H]2O)[C@H]1O [Example 22/Compound 6] |  | 
